Experimental data taken from US10273227B2, “C5-anilinoquinazoline compounds and their use in treating cancer” (AstraZeneca AB, priority 2017, dated 2019).

Experiments:
Type in all cases: cell-based
[1] = system: TEL-KDR (KDR (K790-V1356) fused to the C-terminus of Tel); assay: MTS viability assay, Ba/F3 expressing Tel-KDR; conditions: 72 h incubation, top concentration 10 uM
Method: Tel-KDR myc was cloned into pBCS2004, a retroviral vector, wherein KDR (K790-V1356) is fused to the C-terminus of Tel. Retroviral particles were generated in HEK293T cells. The Tel-KDR plasmid was co-transfected with helper viruses (gag-Pol and VSV-G) into HEK293T cells using calcium phosphate and the virus was harvested 72 h after transfection.
(§1) Exponentially grown Ba/F3 cells (1.5×10^6 cells in 2 ml medium) were infected with 2 ml of viral suspension in a 6-well plate in the presence of mIL-3 (10 ng/ml) and polybrene (4 μg/ml) (Sigma Aldrich, St. Louis, Mo.) and incubated for 24 h. After 24 h, the cells were centrifuged and the viral supernatant was discarded. The cells were then re-suspended in fresh medium and allowed to recover for another day. The following day, the cells were seeded in complete medium without murine IL-3. After a week or two, when cells started proliferating, a selection was carried out by gradually increasing the puromycin concentration to 0.5 ug/ml. Once the cells were growing exponentially in puromycin, batches of cells were frozen down for banking.
(§2) The impact of KIT inhibitors on the viability of Ba/F3 expressing KIT mutations was determined using an MTS assay, which is a colorimetric sensitive quantification of viable cells in proliferation and cytotoxicity assay. In the MTS assay […] in the presence of phenazine methosulfate (PMS) was used. The mitochondrial reductase forms a formazan which absorbs at 490 nm. Cells in exponential growth phase were added to 384-well plates containing pre-dispensed compounds (top concentration 10 uM, 10-point curve). The cells were incubated for 72 h at 37° C. and 5% CO2. After 72 h, MTS reagent was added to the plates and incubated an additional 2 h at 37° C. before measuring the absorbance at 490 nm on a Tecan microplate reader using Magellan Software (Tecan Trading AG, Switzerland).
(§3) The absorbances were normalized as follows: (Read-Day0 control)/(Day3 control−Day0 control)*100. The GI50 values were generated using Genedata Screener software (Genedata Lexington, Mass.). A non-linear regression with constraints for top and bottom between 100 and −100 and no constraint on the Hill coefficient was used to generate GI50 values. The GI50 values reported below are the calculated mean result of at least 3 biological replicates across all the cell lines tested.

Ba/F3-Parental = assay: MTS viability assay, Ba/F3 parental cells; conditions: Mus musculus, BaF3, 72 h incubation, top concentration 10 uM
Method: as §1, §2, §3

[2] = target: T1, Ba/F3-V654A (KIT exon11 deletion (557-558) and secondary mutation V654A) (Homo sapiens, UniProt P10721, DEL557-558/V654A); assay: MTS viability assay, Ba/F3 expressing KIT exon11 deletion (557-558) and V654A; conditions: 72 h incubation, top concentration 10 uM
T1 construct: expressed in transfected cells; host or cells: Ba/F3 cells, lentiviral transduction (pLVX-IRES Puro)
Method: as §1, §2, §3

[3] = target: T2, Ba/F3-T670I (KIT exon11 deletion (557-558) and secondary mutation T670I) (Homo sapiens, UniProt P10721, DEL557-558/T670I); assay: MTS viability assay, Ba/F3 expressing KIT exon11 deletion (557-558) and T670I; conditions: 72 h incubation, top concentration 10 uM
T2 construct: expressed in transfected cells; host or cells: Ba/F3 cells, lentiviral transduction (pLVX-IRES Puro)
Method: as §1, §2, §3

[4] = target: T3, Ba/F3-D816H (KIT exon11 deletion (557-558) and secondary mutation D816H) (Homo sapiens, UniProt P10721, D816H/DEL557-558); assay: MTS viability assay, Ba/F3 expressing KIT exon11 deletion (557-558) and D816H; conditions: 72 h incubation, top concentration 10 uM
T3 construct: expressed in transfected cells; host or cells: Ba/F3 cells, lentiviral transduction (pLVX-IRES Puro)
Method: as §1, §2, §3

T2 sequence (P10721 with tags, fused parts or gaps DEL557-558/T670I): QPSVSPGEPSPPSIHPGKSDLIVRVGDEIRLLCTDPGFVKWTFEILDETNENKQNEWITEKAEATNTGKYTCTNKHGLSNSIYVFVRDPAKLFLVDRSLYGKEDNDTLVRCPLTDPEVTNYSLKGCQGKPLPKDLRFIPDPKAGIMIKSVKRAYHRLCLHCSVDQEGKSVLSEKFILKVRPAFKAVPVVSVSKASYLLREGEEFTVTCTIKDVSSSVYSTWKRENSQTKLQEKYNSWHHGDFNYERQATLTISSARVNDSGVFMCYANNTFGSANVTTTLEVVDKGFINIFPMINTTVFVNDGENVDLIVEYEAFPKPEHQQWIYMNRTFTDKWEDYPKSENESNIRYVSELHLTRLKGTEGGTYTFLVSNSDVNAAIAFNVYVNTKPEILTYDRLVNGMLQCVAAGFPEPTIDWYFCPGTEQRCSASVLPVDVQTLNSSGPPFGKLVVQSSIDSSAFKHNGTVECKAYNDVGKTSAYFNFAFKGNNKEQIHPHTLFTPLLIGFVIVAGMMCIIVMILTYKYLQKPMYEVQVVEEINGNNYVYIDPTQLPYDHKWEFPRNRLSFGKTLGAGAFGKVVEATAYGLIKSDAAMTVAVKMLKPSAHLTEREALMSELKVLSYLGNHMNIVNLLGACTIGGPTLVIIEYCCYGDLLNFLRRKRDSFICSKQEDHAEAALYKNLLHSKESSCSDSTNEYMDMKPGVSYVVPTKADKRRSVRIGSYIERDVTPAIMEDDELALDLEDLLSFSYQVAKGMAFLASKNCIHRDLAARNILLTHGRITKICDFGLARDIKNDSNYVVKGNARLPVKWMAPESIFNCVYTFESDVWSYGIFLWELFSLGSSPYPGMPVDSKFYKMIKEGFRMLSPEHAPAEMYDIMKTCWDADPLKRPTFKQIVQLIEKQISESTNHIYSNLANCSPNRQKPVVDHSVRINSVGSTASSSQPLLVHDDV
T3 sequence (P10721 with tags, fused parts or gaps DEL557-558/D816H): as the sequence (P10721 with tags, fused parts or gaps DEL557-558/T670I) above, with I643T, D789H counted along it
T1 sequence (P10721 with tags, fused parts or gaps DEL557-558/V654A): as the sequence (P10721 with tags, fused parts or gaps DEL557-558/T670I) above, with V627A, I643T counted along it

Row | Compound | GI50 [1] | GI50 (Ba/F3-Parental) | Ba/F3-V654A GI50 [2] | Ba/F3-T670I GI50 [3] | Ba/F3-D816H GI50 [4]
1 | COc1cc(OC)c2c(Nc3ccc(NC(=O)Cn4cc(C(C)C)nn4)cc3F)ncnc2c1 [Example 1, N-(4-[(5,7-dimethoxyquinazolin-4-yl)amino]-3-fluorophenyl)-2-[4-(propan-2-yl)-1H-1,2,3-triazol-1-yl]acetamide] | ≥ 10 µM | ≥ 10 µM | 0.007 µM | 0.162 µM | 0.141 µM
2 | COc1cc2ncnc(Nc3ccc(NC(=O)Cn4cc(C(C)C)nn4)cc3)c2c(F)c1OC [Example 2, N-{4-[(5-fluoro-6,7-dimethoxyquinazolin-4-yl)amino]phenyl}-2-[4-(propan-2-yl)-1H-1,2,3-triazol-1-yl]acetamide] | 2.5 µM | ≥ 10 µM | 0.004 µM | 0.049 µM | 0.022 µM
3 | CCOc1cc(OC2CCOCC2)cc2ncnc(Nc3ccc(NC(=O)Cn4cc(C(C)C)nn4)cc3)c12 [Example 5, N-(4-((5-Ethoxy-7-((tetrahydro-2H-pyran-4-yl)oxy)quinazolin-4-yl)amino)phenyl)-2-(4-isopropyl-1H-1,2,3-triazol-1-yl)acetamide] | 6.18 µM | 1.87 µM | 0.041 µM | 0.591 µM | 0.138 µM
4 | CCOc1cc(OCCN(C)C)cc2ncnc(Nc3ccc(NC(=O)Cn4cc(C(C)C)nn4)cc3)c12 [Example 6, N-(4-((7-(2-(Dimethylamino)ethoxy)-5-ethoxyquinazolin-4-yl)amino)phenyl)-2-(4-isopropyl-1H-1,2,3-triazol-1-yl)acetamide] | 2.66 µM | 2.05 µM | 0.013 µM | 0.091 µM | 0.063 µM
5 | CCOc1cc(OC)cc2ncnc(Nc3ccc(NC(=O)Cn4cc(C(C)C)nn4)cc3)c12 [Example 7, N-(4-((5-Ethoxy-7-methoxyquinazolin-4-yl)amino)phenyl)-2-(4-isopropyl-1H-1,2,3-triazol-1-yl)acetamide] | 3.19 µM | ≥ 10 µM | 0.007 µM | 0.073 µM | 0.079 µM
6 | CCOc1cc(OCCOC)cc2ncnc(Nc3ccc(NC(=O)Cn4cc(C(C)C)nn4)cc3)c12 [Example 8, N-(4-((5-Ethoxy-7-(2-methoxyethoxy)quinazolin-4-yl)amino)phenyl)-2-(4-isopropyl-1H-1,2,3-triazol-1-yl)acetamide] | 2.15 µM | 2.55 µM | 0.015 µM | 0.032 µM | 0.044 µM
7 | CCOc1cc(OC2COC2)cc2ncnc(Nc3ccc(NC(=O)Cn4cc(C(C)C)nn4)cc3)c12 [Example 9, N-(4-((5-Ethoxy-7-(oxetan-3-yloxy)quinazolin-4-yl)amino)phenyl)-2-(4-isopropyl-1H-1,2,3-triazol-1-yl)acetamide] | 2.33 µM | 1.71 µM | 0.012 µM | 0.127 µM | 0.105 µM
8 | COc1cc(OC2CCOCC2)cc2ncnc(Nc3ccc(NC(=O)Cn4cc(C(C)C)nn4)cc3)c12 [Example 10, N-(4-{[5-Methoxy-7-(tetrahydro-2H-pyran-4-yloxy)quinazolin-4-yl]amino}phenyl)-2-[4-(propan-2-yl)-1H-1,2,3-triazol-1-yl]acetamide] | 9.48 µM | ≥ 10 µM | 0.007 µM | 0.640 µM | 0.065 µM
9 | COc1cc2ncnc(Nc3ccc(NC(=O)Cn4cc(C(C)C)nn4)cc3)c2c(OC)c1OC [Example 11, 2-[4-(Propan-2-yl)-1H-1,2,3-triazol-1-yl]-N-{4-[(5,6,7-trimethoxyquinazolin-4-yl)amino]phenyl}acetamide] | 2.48 µM | ≥ 10 µM | 0.004 µM | 0.036 µM | 0.027 µM
10 | COCCOc1cc(F)c2c(Nc3ccc(NC(=O)Cn4cc(C(C)C)nn4)cc3)ncnc2c1 [Example 12, N-(4-{[5-Fluoro-7-(2-methoxyethoxy)quinazolin-4-yl]amino}phenyl)-2-[4-(propan-2-yl)-1H-1,2,3-triazol-1-yl]acetamide] | 1.3 µM | ≥ 10 µM | 0.002 µM | 0.015 µM | 0.007 µM
11 | COc1cc(OC(C)C)cc2ncnc(Nc3ccc(NC(=O)Cn4cc(C(C)C)nn4)cc3)c12 [Example 15, N-(4-{[5-Methoxy-7-(propan-2-yloxy)quinazolin-4-yl]amino}phenyl)-2-[4-(propan-2-yl)-1H-1,2,3-triazol-1-yl]acetamide] | 4.18 µM | ≥ 10 µM | 0.011 µM | 0.254 µM | 0.035 µM
12 | COc1cc(OC2COC2)cc2ncnc(Nc3ccc(NC(=O)Cn4cc(C(C)C)nn4)cc3)c12 [Example 16, N-(4-{[5-Methoxy-7-(oxetan-3-yloxy)quinazolin-4-yl]amino}phenyl)-2-[4-(propan-2-yl)-1H-1,2,3-triazol-1-yl]acetamide] | 9.36 µM | ≥ 10 µM | 0.012 µM | 0.502 µM | 0.090 µM
13 | COc1cc(OCCN(C)C)cc2ncnc(Nc3ccc(NC(=O)Cn4cc(C(C)C)nn4)cc3)c12 [Example 17, N-[4-({7-[2-(Dimethylamino)ethoxy]-5-methoxyquinazolin-4-yl}amino)phenyl]-2-[4-(propan-2-yl)-1H-1,2,3-triazol-1-yl]acetamide] | ≥ 10 µM | ≥ 10 µM | 0.020 µM | 0.627 µM | 0.088 µM
14 | CCOc1cc(OC)c2c(Nc3ccc(NC(=O)Cn4cc(C(C)C)nn4)cc3)ncnc2c1 [Example 18, N-{4-[(7-Ethoxy-5-methoxyquinazolin-4-yl)amino]phenyl}-2-[4-(propan-2-yl)-1H-1,2,3-triazol-1-yl]acetamide] | 6.01 µM | ≥ 10 µM | 0.003 µM | 0.066 µM | 0.021 µM
15 | CCOc1cc(OCC)c2c(Nc3ccc(NC(=O)Cn4cc(C(C)C)nn4)cc3)ncnc2c1 [Example 19, N-{4-[(5,7-Diethoxyquinazolin-4-yl)amino]phenyl}-2-[4-(propan-2-yl)-1H-1,2,3-triazol-1-yl]acetamide] | ≥ 10 µM | ≥ 10 µM | 0.007 µM | 0.034 µM | 0.056 µM
16 | COCCOc1cc(OC)c2c(Nc3ccc(NC(=O)Cn4cc(C(C)C)nn4)cc3)ncnc2c1 [Example 20, N-(4-{[5-Methoxy-7-(2-methoxyethoxy)quinazolin-4-yl]amino}phenyl)-2-[4-(propan-2-yl)-1H-1,2,3-triazol-1-yl]acetamide] | 3.39 µM | 9.96 µM | 0.008 µM | 0.053 µM | 0.030 µM
17 | COc1cc(F)c2c(Nc3ccc(NC(=O)Cn4cc(C(C)C)nn4)cc3)ncnc2c1 [Example 21, N-{4-[(5-Fluoro-7-methoxyquinazolin-4-yl)amino]phenyl}-2-[4-(propan-2-yl)-1H-1,2,3-triazol-1-yl]acetamide] | ≥ 10 µM | ≥ 10 µM | 0.002 µM | 0.068 µM | 0.025 µM
18 | COc1cc(OC)c2c(Nc3ccc(NC(=O)Cn4cc(C(C)C)nn4)cc3)ncnc2c1 [Example 22, N-{4-[(5,7-Dimethoxyquinazolin-4-yl)amino]phenyl}-2-[4-(propan-2-yl)-1H-1,2,3-triazol-1-yl]acetamide] | 5.35 µM | ≥ 10 µM | 0.003 µM | 0.106 µM | 0.048 µM
